Assay results from ChEMBL document CHEMBL4765471, “1-Methyl-1H-pyrazole-5-carboxamide Derivatives Exhibit Unexpected Acute Mammalian Toxicity” (J Med Chem, 2021).

Test: Toxicity in orally dosed Swiss mouse assessed as induction of observable clinical effects measured 2 to 4 days after dosing
Assay type: organism-based
Conditions: in vivo, po, time 2-4 day

First: Cc1ccc(Oc2ccc(CNC(=O)c3c(F)cnn3C)cc2)cc1
Second: Cn1ncc(Cl)c1C(=O)NCc1ccc(Oc2ccc(Cl)cc2)cc1
The MTD of the first is 4-fold higher: 20 mg/kg for the first, 5 mg/kg for the second.

`CCc1nc(-c2ccc(CNC(=O)c3ccnn3C)cc2)no1` and `Cn1ncc(Cl)c1C(=O)NCc1ccc(-c2noc(C3CC3)n2)cc1` are the same in MTD: 1 mg/kg for the first, 1 mg/kg for the second.

`Cn1ncc(Cl)c1C(=O)NCc1ccc(Oc2ccc(Cl)nc2)cc1` and `Cc1nn(C)c(C(=O)NCc2ccc(Oc3ccc(Cl)nc3)cc2)c1Cl` are the same in MTD: 1 mg/kg for the first, 1 mg/kg for the second.

In the case of `CCc1nn(C)c(C(=O)NCc2ccc(Oc3ccc(C)cc3)cc2)c1Cl` [TOLFENPYRAD], the MTD is reported as 1 mg/kg.

Test: Toxicity in female Swiss mouse assessed as induction of reversible motor depression at 20 mg/kg, po
Assay type: organism-based
Conditions: in vivo

With `Cn1ncc(Cl)c1C(=O)NCc1ccc(Oc2ccc(Cl)cc2)cc1` the Activity was “Toxic”.

Test: Selectivity index, ratio of IC50 for toxicity in rat FAO cells assessed as reduction in cellular respiration to IC50 for inhibition of Haemonchus contortus by L4 development assay
Conditions: not given

Going from `CCc1nn(C)c(C(=O)NCc2ccc(Oc3ccc(Cl)cc3)cc2)c1Cl` to `CCc1nn(C)c(C(=O)NCc2ccc(Oc3ccc(C)cc3)cc2)c1Cl` [TOLFENPYRAD], the “Ratio IC50” value rises from 6 to 55.

Going from `Cc1ccc(Oc2ccc(CNC(=O)c3c(F)cnn3C)cc2)cc1` to `Cn1ncc(Cl)c1C(=O)NCc1ccc(Oc2ccc(Cl)cc2)cc1`, the “Ratio IC50” value rises from 430 to 1700.

Compared with `CCc1nc(-c2ccc(CNC(=O)c3ccnn3C)cc2)no1`, `CCc1nc(-c2ccc(CNC(=O)c3c(Cl)c(CC)nn3C)cc2)no1` is higher in “Ratio IC50” value: 7 for the first, 80 for the second.

First: Cn1ncc(Cl)c1C(=O)NCc1ccc(-c2noc(C3CC3)n2)cc1
Second: Cn1ncc(Cl)c1C(=O)NCc1ccc(Oc2ccc(Cl)nc2)cc1
The “Ratio IC50” value of the first is higher: 4144 for the first, 63 for the second.

Going from `Cc1nn(C)c(C(=O)NCc2ccc(Oc3ccc(Cl)cc3)cc2)c1Cl` to `Cc1nn(C)c(C(=O)NCc2ccc(Oc3ccc(Cl)nc3)cc2)c1Cl`, the “Ratio IC50” value rises from 181 to 500.

Test: Toxicity in rat FAO cells assessed as reduction in cell proliferation incubated for 48 hrs by crystal violet staining based assay
Conditions: not given

`CCc1nn(C)c(C(=O)NCc2ccc(Oc3ccc(Cl)cc3)cc2)c1Cl` and `CCc1nn(C)c(C(=O)NCc2ccc(Oc3ccc(C)cc3)cc2)c1Cl` [TOLFENPYRAD] cannot be ordered by IC50 at 48 h: under 6 µM for the first, under 6 µM for the second.

`Cc1ccc(Oc2ccc(CNC(=O)c3c(F)cnn3C)cc2)cc1` and `Cn1ncc(Cl)c1C(=O)NCc1ccc(Oc2ccc(Cl)cc2)cc1` cannot be ordered by IC50 at 48 h: under 6 µM for the first, under 6 µM for the second.

`CCc1nc(-c2ccc(CNC(=O)c3ccnn3C)cc2)no1` and `CCc1nc(-c2ccc(CNC(=O)c3c(Cl)c(CC)nn3C)cc2)no1` cannot be ordered by IC50 at 48 h: under 6 µM for the first, under 6 µM for the second.

`Cn1ncc(Cl)c1C(=O)NCc1ccc(-c2noc(C3CC3)n2)cc1` and `Cn1ncc(Cl)c1C(=O)NCc1ccc(Oc2ccc(Cl)nc2)cc1` cannot be ordered by IC50 at 48 h: under 6 µM for the first, under 6 µM for the second.

`Cc1nn(C)c(C(=O)NCc2ccc(Oc3ccc(Cl)cc3)cc2)c1Cl` and `Cc1nn(C)c(C(=O)NCc2ccc(Oc3ccc(Cl)nc3)cc2)c1Cl` cannot be ordered by IC50 at 48 h: under 6 µM for the first, under 6 µM for the second.

Test: Toxicity in human MCF-10A cells
Assay type: cell-based
Conditions: not given

First: CCc1nn(C)c(C(=O)NCc2ccc(Oc3ccc(Cl)cc3)cc2)c1Cl
Second: CCc1nn(C)c(C(=O)NCc2ccc(Oc3ccc(C)cc3)cc2)c1Cl [TOLFENPYRAD]
The IC50 of the first is 3.9-fold lower: 8.7 µM for the first, 33.7 µM for the second.

First: Cc1ccc(Oc2ccc(CNC(=O)c3c(F)cnn3C)cc2)cc1
Second: Cn1ncc(Cl)c1C(=O)NCc1ccc(Oc2ccc(Cl)cc2)cc1
The IC50 of the first is lower: 13.7 µM for the first, over 50 µM for the second. The first is the more potent here.

`CCc1nc(-c2ccc(CNC(=O)c3ccnn3C)cc2)no1` and `CCc1nc(-c2ccc(CNC(=O)c3c(Cl)c(CC)nn3C)cc2)no1` cannot be ordered by IC50: over 100 µM for the first, over 50 µM for the second.

Going from `Cn1ncc(Cl)c1C(=O)NCc1ccc(-c2noc(C3CC3)n2)cc1` to `Cn1ncc(Cl)c1C(=O)NCc1ccc(Oc2ccc(Cl)nc2)cc1`, the IC50 rises from 24.3 µM to over 50 µM. The first is the more potent here.

First: Cc1nn(C)c(C(=O)NCc2ccc(Oc3ccc(Cl)cc3)cc2)c1Cl
Second: Cc1nn(C)c(C(=O)NCc2ccc(Oc3ccc(Cl)nc3)cc2)c1Cl
The IC50 of the first is lower: 50 µM for the first, over 50 µM for the second.

Test: Toxicity in male Swiss mouse assessed as induction of reversible motor depression at 20 mg/kg, po
Assay type: organism-based
Conditions: in vivo

For `Cn1ncc(Cl)c1C(=O)NCc1ccc(Oc2ccc(Cl)cc2)cc1`, the Activity was “Toxic”.

Test: Toxicity in Swiss mouse assessed as induction of reversible motor depression at 5 mg/kg, po measured at first 15 mins post dosing
Assay type: organism-based
Conditions: in vivo, 0.25 h

For `CCc1nc(-c2ccc(CNC(=O)c3ccnn3C)cc2)no1`, the Activity was “Toxic”.
In the case of `Cn1ncc(Cl)c1C(=O)NCc1ccc(-c2noc(C3CC3)n2)cc1`, the Activity is reported as “Toxic”.
With `Cn1ncc(Cl)c1C(=O)NCc1ccc(Oc2ccc(Cl)nc2)cc1` the Activity was “Toxic”.
With `Cc1nn(C)c(C(=O)NCc2ccc(Oc3ccc(Cl)nc3)cc2)c1Cl` the Activity was “Toxic”.
In the case of `CCc1nn(C)c(C(=O)NCc2ccc(Oc3ccc(C)cc3)cc2)c1Cl` [TOLFENPYRAD], the Activity is reported as “Toxic”.

Test: Toxicity in female Swiss mouse assessed as induction of reversible motor depression at 30 mg/kg, po
Assay type: organism-based
Conditions: in vivo

With `Cc1ccc(Oc2ccc(CNC(=O)c3c(F)cnn3C)cc2)cc1` the Activity was “Toxic”.

Test: Toxicity in rat FAO cells assessed as reduction in cellular respiration incubated over 1 hrs by extracellular flux analyzer based assay
Assay type: cell-based
Conditions: not given

Compared with `CCc1nn(C)c(C(=O)NCc2ccc(Oc3ccc(Cl)cc3)cc2)c1Cl`, `CCc1nn(C)c(C(=O)NCc2ccc(Oc3ccc(C)cc3)cc2)c1Cl` [TOLFENPYRAD] is 2.2-fold higher in IC50 at 1 h: 510 nM for the first, 1100 nM for the second.

Compared with `Cc1ccc(Oc2ccc(CNC(=O)c3c(F)cnn3C)cc2)cc1`, `Cn1ncc(Cl)c1C(=O)NCc1ccc(Oc2ccc(Cl)cc2)cc1` is 2.5-fold lower in IC50 at 1 h: 4300 nM for the first, 1700 nM for the second.

Going from `CCc1nc(-c2ccc(CNC(=O)c3ccnn3C)cc2)no1` to `CCc1nc(-c2ccc(CNC(=O)c3c(Cl)c(CC)nn3C)cc2)no1`, the IC50 at 1 h falls from 1300 nM to 160 nM (8.1-fold).

Going from `Cn1ncc(Cl)c1C(=O)NCc1ccc(-c2noc(C3CC3)n2)cc1` to `Cn1ncc(Cl)c1C(=O)NCc1ccc(Oc2ccc(Cl)nc2)cc1`, the IC50 at 1 h falls from 3730 nM to 1900 nM (2-fold).

First: Cc1nn(C)c(C(=O)NCc2ccc(Oc3ccc(Cl)cc3)cc2)c1Cl
Second: Cc1nn(C)c(C(=O)NCc2ccc(Oc3ccc(Cl)nc3)cc2)c1Cl
The IC50 at 1 h of the first is 8.5-fold higher: 1270 nM for the first, 150 nM for the second.

Test: Inhibition of Haemonchus contortus by L4 development assay
Assay type: functional
Conditions: not given

First: CCc1nn(C)c(C(=O)NCc2ccc(Oc3ccc(Cl)cc3)cc2)c1Cl
Second: CCc1nn(C)c(C(=O)NCc2ccc(Oc3ccc(C)cc3)cc2)c1Cl [TOLFENPYRAD]
The IC50 of the first is 4-fold higher: 80 nM for the first, 20 nM for the second.

First: Cc1ccc(Oc2ccc(CNC(=O)c3c(F)cnn3C)cc2)cc1
Second: Cn1ncc(Cl)c1C(=O)NCc1ccc(Oc2ccc(Cl)cc2)cc1
The IC50 of the first is 10-fold higher: 10 nM for the first, 1 nM for the second.

First: CCc1nc(-c2ccc(CNC(=O)c3ccnn3C)cc2)no1
Second: CCc1nc(-c2ccc(CNC(=O)c3c(Cl)c(CC)nn3C)cc2)no1
The IC50 of the first is 100-fold higher: 200 nM for the first, 2 nM for the second. The second is the more potent here.

Compared with `Cn1ncc(Cl)c1C(=O)NCc1ccc(-c2noc(C3CC3)n2)cc1`, `Cn1ncc(Cl)c1C(=O)NCc1ccc(Oc2ccc(Cl)nc2)cc1` is 33-fold higher in IC50: 0.9 nM for the first, 30 nM for the second. The first is the more potent here.

`Cc1nn(C)c(C(=O)NCc2ccc(Oc3ccc(Cl)cc3)cc2)c1Cl` and `Cc1nn(C)c(C(=O)NCc2ccc(Oc3ccc(Cl)nc3)cc2)c1Cl` cannot be ordered by IC50: under 0.7 nM for the first, 0.3 nM for the second.

Test: Toxicity in male Swiss mouse assessed as induction of reversible motor depression at 50 mg/kg, po
Assay type: organism-based
Conditions: in vivo

In the case of `Cc1ccc(Oc2ccc(CNC(=O)c3c(F)cnn3C)cc2)cc1`, the Activity is reported as “Toxic”.
